Activity calls are given as the source filed them. The calls are words filed in the database; no cut-off is given here.
How the values were obtained:
[1] = target: T1, Protein mono-ADP-ribosyltransferase TIPARP (Mus musculus) (UniProt Q8C1B2); assay: Inhibition of PARP7 in mouse CT26 cells assessed as increase in IFN-beta levels at 49 to 4000 nmol/L measured after 48 hrs by RT-qPCR analysis; format: cell-based; settings: dose lower […], dose upper 4000.0 nmol/L
T1 sequence (whole entry): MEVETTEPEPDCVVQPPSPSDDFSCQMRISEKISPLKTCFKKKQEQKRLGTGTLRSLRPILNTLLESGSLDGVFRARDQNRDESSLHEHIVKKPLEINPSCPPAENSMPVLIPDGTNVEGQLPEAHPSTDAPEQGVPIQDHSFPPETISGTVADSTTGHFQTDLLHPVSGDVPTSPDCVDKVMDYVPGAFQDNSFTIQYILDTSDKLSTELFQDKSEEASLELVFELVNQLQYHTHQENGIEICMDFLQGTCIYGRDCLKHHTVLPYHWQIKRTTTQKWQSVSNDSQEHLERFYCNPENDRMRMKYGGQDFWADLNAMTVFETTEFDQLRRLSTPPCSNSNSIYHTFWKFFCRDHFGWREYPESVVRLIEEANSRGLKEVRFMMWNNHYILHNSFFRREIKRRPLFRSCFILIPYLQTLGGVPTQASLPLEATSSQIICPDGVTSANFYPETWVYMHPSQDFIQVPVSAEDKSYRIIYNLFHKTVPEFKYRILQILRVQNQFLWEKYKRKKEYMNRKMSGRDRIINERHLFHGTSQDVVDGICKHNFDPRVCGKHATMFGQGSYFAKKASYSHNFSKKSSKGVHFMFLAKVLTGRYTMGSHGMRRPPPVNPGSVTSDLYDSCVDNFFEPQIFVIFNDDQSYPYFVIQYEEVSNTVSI

[2] = Initial plasma concentration in ICR mouse at 1 mg/kg, iv measured upto 24 hrs by LC-MS/MS analysis; format: ADME, organism-based
[3] = Clearance in ICR mouse at 1 mg/kg, iv measured upto 24 hrs by LC-MS/MS analysis; format: ADME, organism-based; settings: in vivo
[4] = target: T2, Protein mono-ADP-ribosyltransferase PARP10 (Homo sapiens, UniProt Q53GL7); assay: Inhibition of human recombinant N-terminal FLAG-tagged / C-terminal Strep-tagged PARP10 (805 to 1025 end residues) expressed in baculovirus infected Sf9 cells expression system incubated for 1 hr by ELISA assay
T2 sequence (Q53GL7 whole entry): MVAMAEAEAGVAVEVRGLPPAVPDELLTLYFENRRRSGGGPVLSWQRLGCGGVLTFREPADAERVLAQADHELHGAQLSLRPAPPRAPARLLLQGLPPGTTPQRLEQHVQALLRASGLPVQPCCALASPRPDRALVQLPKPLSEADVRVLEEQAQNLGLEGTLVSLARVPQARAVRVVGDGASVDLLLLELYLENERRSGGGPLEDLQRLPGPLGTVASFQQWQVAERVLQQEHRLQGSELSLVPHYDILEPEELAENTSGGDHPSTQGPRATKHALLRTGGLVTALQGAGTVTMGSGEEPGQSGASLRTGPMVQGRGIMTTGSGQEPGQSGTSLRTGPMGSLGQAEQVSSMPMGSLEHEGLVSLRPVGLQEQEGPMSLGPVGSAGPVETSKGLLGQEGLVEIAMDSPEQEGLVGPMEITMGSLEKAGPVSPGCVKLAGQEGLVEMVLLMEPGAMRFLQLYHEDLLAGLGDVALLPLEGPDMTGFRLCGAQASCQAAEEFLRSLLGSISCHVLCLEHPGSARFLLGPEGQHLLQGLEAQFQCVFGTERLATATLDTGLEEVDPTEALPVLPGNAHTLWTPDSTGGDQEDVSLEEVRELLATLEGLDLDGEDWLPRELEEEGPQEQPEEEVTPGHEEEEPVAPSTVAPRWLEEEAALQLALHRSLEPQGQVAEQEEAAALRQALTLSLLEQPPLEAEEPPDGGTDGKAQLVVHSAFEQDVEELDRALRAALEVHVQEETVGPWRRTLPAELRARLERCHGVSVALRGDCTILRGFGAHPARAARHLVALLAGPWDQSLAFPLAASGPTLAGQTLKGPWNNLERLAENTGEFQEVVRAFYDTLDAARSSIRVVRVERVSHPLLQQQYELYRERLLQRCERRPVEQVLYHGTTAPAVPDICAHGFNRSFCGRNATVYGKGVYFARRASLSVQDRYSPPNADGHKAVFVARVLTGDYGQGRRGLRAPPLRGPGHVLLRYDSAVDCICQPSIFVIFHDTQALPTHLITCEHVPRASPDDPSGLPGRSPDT

[5] = tested on: CT26; assay: Antitumor activity against mouse CT26 cells implanted in BALB/c mouse assessed as decrease in Ki-67 expression at 25 to 100 mg/kg, po bid measured for 14 days by immunohistochemistry analysis; format: functional, organism-based; settings: dose 25-100 mg/kg, time 14.0 day
[6] = tested on: CT26; assay: Antitumor activity against mouse CT26 cells xenografted in BALB/c mouse assessed as tumor growth inhibition at 50 mg/kg, po bid measured for 14 days; format: functional; settings: CT26, 336 h, time 14 day, read-out: TGI
[7] = tested on: CT26; assay: Antitumor activity against mouse CT26 cells implanted in immunodeficient BALB/c mouse at 100 mg/kg, po bid measured for 10 days; format: functional, organism-based; settings: time 10.0 day
[8] = tested on: CT26; assay: Antitumor activity against mouse CT26 cells implanted in BALB/c mouse assessed as increase in infiltration of CD4 positive CD8 positive T lymphocytes in tumors at 50 mg/kg, po measured after 14 days by flow cytometry (reference value: 6.67%); format: functional; settings: time 14 day
[9] = target: Protein mono-ADP-ribosyltransferase PARP14 (Homo sapiens, UniProt Q460N5); assay: Inhibition of human recombinant N-terminal 6his-tagged / GST-tagged PARP14 (1470 to 1801 end residues) expressed in baculovirus infected Sf9 cells expression system incubated for 1 hr by ELISA assay
Protein mono-ADP-ribosyltransferase PARP14, sequence (Q460N5 whole entry): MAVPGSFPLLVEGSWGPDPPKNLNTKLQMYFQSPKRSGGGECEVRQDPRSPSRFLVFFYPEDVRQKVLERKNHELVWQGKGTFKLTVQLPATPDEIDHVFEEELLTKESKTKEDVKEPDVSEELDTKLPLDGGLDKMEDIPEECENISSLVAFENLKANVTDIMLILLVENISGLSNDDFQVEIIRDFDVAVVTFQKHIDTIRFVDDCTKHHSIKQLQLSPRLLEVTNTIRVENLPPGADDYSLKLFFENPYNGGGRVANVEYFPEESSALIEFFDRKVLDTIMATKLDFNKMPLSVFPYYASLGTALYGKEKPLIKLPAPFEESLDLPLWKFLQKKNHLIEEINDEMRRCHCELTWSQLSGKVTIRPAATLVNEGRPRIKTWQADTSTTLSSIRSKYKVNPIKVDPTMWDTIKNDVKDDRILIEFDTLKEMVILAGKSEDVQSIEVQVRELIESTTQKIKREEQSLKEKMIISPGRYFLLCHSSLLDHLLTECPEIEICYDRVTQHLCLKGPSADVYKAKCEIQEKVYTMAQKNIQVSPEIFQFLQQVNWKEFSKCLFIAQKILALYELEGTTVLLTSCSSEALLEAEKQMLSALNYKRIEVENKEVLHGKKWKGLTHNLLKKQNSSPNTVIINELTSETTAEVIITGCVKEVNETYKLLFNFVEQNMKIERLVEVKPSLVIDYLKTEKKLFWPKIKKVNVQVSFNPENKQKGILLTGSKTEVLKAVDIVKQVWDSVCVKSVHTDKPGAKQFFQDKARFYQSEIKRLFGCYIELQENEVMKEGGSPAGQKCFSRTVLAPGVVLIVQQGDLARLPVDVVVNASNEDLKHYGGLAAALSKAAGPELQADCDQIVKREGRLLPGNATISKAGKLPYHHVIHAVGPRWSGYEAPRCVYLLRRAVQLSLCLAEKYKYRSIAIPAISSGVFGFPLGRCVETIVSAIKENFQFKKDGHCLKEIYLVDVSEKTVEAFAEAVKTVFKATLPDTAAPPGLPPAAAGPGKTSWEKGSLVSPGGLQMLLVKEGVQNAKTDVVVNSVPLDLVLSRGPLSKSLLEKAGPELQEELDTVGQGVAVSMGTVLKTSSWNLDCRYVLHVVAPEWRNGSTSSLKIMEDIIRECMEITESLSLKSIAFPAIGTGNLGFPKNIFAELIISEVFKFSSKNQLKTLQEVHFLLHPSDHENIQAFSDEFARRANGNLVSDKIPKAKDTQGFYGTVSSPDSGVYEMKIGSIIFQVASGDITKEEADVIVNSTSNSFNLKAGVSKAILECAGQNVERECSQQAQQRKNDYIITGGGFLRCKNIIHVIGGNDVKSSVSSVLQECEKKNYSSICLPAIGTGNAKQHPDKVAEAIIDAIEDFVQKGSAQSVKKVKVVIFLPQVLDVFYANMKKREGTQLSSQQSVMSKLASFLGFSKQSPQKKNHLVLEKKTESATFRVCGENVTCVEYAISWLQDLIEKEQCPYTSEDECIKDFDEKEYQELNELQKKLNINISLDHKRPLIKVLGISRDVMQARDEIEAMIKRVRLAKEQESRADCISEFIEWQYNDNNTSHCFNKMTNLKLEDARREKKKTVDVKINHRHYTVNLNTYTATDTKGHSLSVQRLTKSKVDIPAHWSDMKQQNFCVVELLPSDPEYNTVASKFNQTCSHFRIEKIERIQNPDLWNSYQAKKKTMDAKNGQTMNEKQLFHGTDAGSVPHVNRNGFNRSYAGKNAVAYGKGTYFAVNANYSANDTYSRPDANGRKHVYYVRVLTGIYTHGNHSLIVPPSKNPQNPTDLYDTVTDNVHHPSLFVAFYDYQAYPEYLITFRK

[10] = tested on: CT26; assay: Antitumor activity against mouse CT26 cells implanted in BALB/c mouse assessed as tumor cell agglutination at 25 to 100 mg/kg, po bid measured for 14 days by hematoxylin and eosin staining based fluorescence microscopic analysis; format: functional, organism-based; settings: dose 25-100 mg/kg, time 14.0 day
[11] = Toxicity in BALB/c mouse implanted with mouse CT26 cells assessed as spleen damage at 100 mg/kg, po measured for 14 days by hematoxylin and eosin staining based fluorescence microscopic analysis; format: organism-based; settings: in vivo, 336 h, time 14 day
[12] = tested on: CT26; assay: Antitumor activity against mouse CT26 cells implanted in po dosed BALB/c mouse assessed as increase in CXCL10 levels measured after 14 days by RT-qPCR analysis; format: functional, organism-based; settings: dose 25-100 mg/kg, time 14.0 day
[13] = Half life in ICR mouse at 1 mg/kg, iv measured upto 24 hrs by LC-MS/MS analysis; format: ADME, organism-based; settings: in vivo
[14] = tested on: CT26; assay: Antitumor activity against mouse CT26 cells xenografted in BALB/c mouse assessed as tumor growth inhibition at 25 mg/kg, po bid measured for 14 days; format: functional; settings: CT26, 336 h, time 14 day, read-out: TGI
[15] = Oral bioavailability in ICR mouse at 10 mg/kg measured upto 24 hrs by LC-MS/MS analysis; format: ADME, organism-based; settings: in vivo
[16] = MRT(0 to infinity) in ICR mouse at 1 mg/kg, iv measured upto 24 hrs by LC-MS/MS analysis; format: ADME, organism-based; settings: in vivo

inhibition [1]: Active | C0 at 24 h [2]: 504 ng/mL | clearance [3]: 29 mL/min/kg | IC50 [4]: 325 nM | IC50 [9]: 2170 nM | t1/2 [13]: 1.44 h | bioavailability [15]: 95.8% | MRT inf [16]: 1.68 h
SMILES: C[C@@H](CN1CC(C(=O)N2CCN(c3ncc(C(F)(F)F)cn3)CC2)C1)Nc1cn[nH]c(=O)c1C(F)(F)F
Activity [5]: Active | inhibition in vivo at 50 mg/kg [6]: 46% | Activity [7]: inactive | Activity [8]: 26.6% | Activity [10]: Active | Activity [11]: Non-Toxic | Activity [12]: Dose-Dependent Effect | inhibition in vivo at 25 mg/kg [14]: 39%
